The target in this assay is Sushi domains (SD1/2) protein. Kind of assay: Fluorescence polarization (FP) competition assay with AJAP-1probe, calculated Ki. In kind it is binding. In a few lines: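 Competition against 25 nM TAMRA-labelled peptide probe binding SD1/2, in PBS pH 7.4 with 1% BSA at rt, read at 530/580 nm. IC50 from sigmoidal dose-response fits, at least triplicate; Ki calculated from IC50 using probe Kd from saturation binding.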

[1] abbreviates: purified peptides, read-out: Ki.
Where [2] appears, read: CPP tagged peptides overview, SD1/2 binding affinity, mean ± SEM, n ≥ 3, read-out: Ki.
Setting [3] is: Table 14, CPPs tagged peptides, read-out: Ki (nM) mean ± SEM.
The mark [4] stands for this setting: Table 1, affinity maturation, mean ± SEM, n ≥ 3, read-out: Ki.
Setting [5] is: Table 13, peptides for affinity maturation, read-out: Ki (nM) mean ± SEM.

Structures are written as SMILES. Like-named read-outs stand apart in the source and are kept apart here. Residues, ends and D or L forms follow the SMILES beside them.

Regarding `CC[C@H](C)[C@H](NC(=O)[C@H](Cc1ccccc1)NC(=O)[C@H](CCC(=O)O)NC(=O)[C@@H](NC(=O)[C@H](CCC(=O)O)NC(=O)[C@@H](NC(C)=O)[C@@H](C)O)[C@@H](C)O)C(=O)N[C@@H](C)C(=O)N[C@@H](Cc1c[nH]c2ccccc12)C(=O)NCC(=O)N1CCC[C@H]1C(=O)N[C@H](C(=O)NCC(=O)N[C@@H](CC(=O)O)C(=O)N[C@@H](CCC(=O)O)C(=O)N[C@@H](CC(=O)O)C(N)=O)[C@@H](C)O` [Peptide 15, Ac-TETEFIAWGPTGDED-NH2] (Ac-TETEFIAWGPTGDED-NH2), the inhibition constant Ki was 26 ± 0.3 nM (Table 5, elongation and truncation scan of AJAP-1 binding epitope, read-out: Ki (nM) mean ± SEM); 23 nM under setting [1].
For the compound `CC[C@H](C)[C@H](NC(=O)[C@H](Cc1c[nH]c2ccccc12)NC(=O)[C@H](CC(=O)O)NC(=O)[C@H](CC(=O)O)NC(=O)[C@H](CC(=O)O)NC(=O)[C@H](CCC(=O)O)NC(C)=O)C(=O)N[C@@H](CC(=O)O)C(=O)N[C@@H](Cc1c[nH]c2ccccc12)C(=O)N[C@@H](Cc1ccc(O)cc1)C(=O)N[C@@H](CC(=O)O)C(=O)N[C@@H](CO)C(=O)N[C@@H](CC(=O)O)C(=O)N[C@@H](CC(=O)O)C(=O)N[C@@H](CC(=O)O)C(=O)NCC(=O)NCC(=O)NCC(=O)NCC(=O)N[C@@H](CO)C(=O)N[C@@H](CCCNC(=N)N)C(=O)N[C@@H](CCCNC(=N)N)C(=O)N[C@@H](CCCNC(=N)N)C(=O)N[C@@H](CCCNC(=N)N)C(=O)N[C@@H](CCCNC(=N)N)C(=O)N[C@@H](CCCNC(=N)N)C(=O)N[C@@H](CCCNC(=N)N)C(=O)N[C@@H](CCCNC(=N)N)C(N)=O` [Peptide 16-FL-R8] (Ac-EDDDWIDWYDSDDDGGGGSRRRRRRRR-NH2), the Ki is 118 ± 3 nM under setting [2] and 118 ± 3 nM under setting [3].
On to `CC[C@H](C)[C@H](NC(=O)[C@H](Cc1c[nH]c2ccccc12)NC(=O)[C@H](CC(=O)O)NC(=O)[C@H](CC(=O)O)NC(=O)[C@H](CC(=O)O)NC(=O)[C@H](CCC(=O)O)NC(C)=O)C(=O)N[C@@H](CC(=O)O)C(=O)N[C@@H](Cc1c[nH]c2ccccc12)C(=O)N[C@@H](Cc1ccc(O)cc1)C(=O)N[C@@H](CC(=O)O)C(=O)N[C@@H](CO)C(=O)N[C@@H](CC(=O)O)C(=O)N[C@@H](CC(=O)O)C(=O)N[C@@H](CC(=O)O)C(=O)N[C@@H](CCCNC(=N)N)C(=O)N[C@@H](CCCNC(=N)N)C(=O)N[C@@H](CCCNC(=N)N)C(=O)N[C@@H](CCCNC(=N)N)C(=O)N[C@@H](CCCNC(=N)N)C(=O)N[C@@H](CCCNC(=N)N)C(=O)N[C@@H](CCCNC(=N)N)C(=O)N[C@@H](CCCNC(=N)N)C(N)=O` [Peptide 16-R8] (Ac-EDDDWIDWYDSDDDRRRRRRRR-NH2), for which the Ki under setting [2] is 65 ± 1 nM and the inhibition constant Ki under setting [3] was 65.3 ± 1 nM.
On to `CC[C@H](C)[C@H](NC(=O)[C@H](Cc1c[nH]c2ccccc12)NC(=O)[C@H](CC(=O)O)NC(=O)[C@H](CC(=O)O)NC(=O)[C@H](CC(=O)O)NC(=O)[C@H](CCC(=O)O)NC(C)=O)C(=O)N[C@@H](CC(=O)O)C(=O)N[C@@H](Cc1c[nH]c2ccccc12)C(=O)N[C@@H](Cc1ccc(O)cc1)C(=O)N[C@@H](CC(=O)O)C(=O)N[C@@H](CO)C(=O)N[C@@H](CC(=O)O)C(=O)N[C@@H](CC(=O)O)C(=O)N[C@@H](CC(=O)O)C(=O)N[C@@H](CCC(=O)O)C(=O)N[C@@H](C)C(=O)N[C@@H](C)C(=O)N[C@@H](C)C(=O)N[C@@H](CCCCN)C(=O)N[C@@H](CCCNC(=N)N)C(=O)N[C@@H](CCCNC(=N)N)C(=O)N[C@@H](CCCNC(=N)N)C(=O)N[C@@H](CCCNC(=N)N)C(=O)N[C@@H](CCCNC(=N)N)C(=O)N[C@@H](CCCNC(=N)N)C(=O)N[C@@H](CCCNC(=N)N)C(=O)N[C@@H](CCCNC(=N)N)C(N)=O` [Peptide 16-RL-R8] (Ac-EDDDWIDWYDSDDDEAAAKRRRRRRRR-NH2), for which the Ki is 100 ± 4 nM under setting [2] and 99.5 ± 4 nM under setting [3].
In the same order, the values of `CC[C@H](C)[C@H](NC(=O)[C@H](Cc1c[nH]c2ccccc12)NC(=O)[C@H](CC(=O)O)NC(=O)[C@H](CC(=O)O)NC(=O)[C@H](CC(=O)O)NC(=O)[C@H](CCC(=O)O)NC(C)=O)C(=O)N[C@@H](CC(=O)O)C(=O)N[C@@H](Cc1c[nH]c2ccccc12)C(=O)NCC(=O)N1CCC[C@H]1C(=O)N[C@H](C(=O)N[C@@H](CO)C(=O)N[C@@H](CC(=O)O)C(=O)N[C@@H](CC(=O)O)C(=O)N[C@@H](CC(=O)O)C(=O)NCC(=O)NCC(=O)NCC(=O)NCC(=O)N[C@@H](CO)C(=O)N[C@@H](CCCNC(=N)N)C(=O)N[C@@H](CCCNC(=N)N)C(=O)N[C@@H](CCCNC(=N)N)C(=O)N[C@@H](CCCNC(=N)N)C(=O)N[C@@H](CCCNC(=N)N)C(=O)N[C@@H](CCCNC(=N)N)C(=O)N[C@@H](CCCNC(=N)N)C(=O)N[C@@H](CCCNC(=N)N)C(N)=O)[C@@H](C)O` [Peptide 17-FL-R8] (Ac-EDDDWIDWGPTSDDDGGGGSRRRRRRRR-NH2) are 147 ± 9 nM and 147 ± 9 nM.
In the same order, the values of `CC[C@H](C)[C@H](NC(=O)[C@H](Cc1c[nH]c2ccccc12)NC(=O)[C@H](CC(=O)O)NC(=O)[C@H](CC(=O)O)NC(=O)[C@H](CC(=O)O)NC(=O)[C@H](CCC(=O)O)NC(C)=O)C(=O)N[C@@H](CC(=O)O)C(=O)N[C@@H](Cc1c[nH]c2ccccc12)C(=O)NCC(=O)N1CCC[C@H]1C(=O)N[C@H](C(=O)N[C@@H](CO)C(=O)N[C@@H](CC(=O)O)C(=O)N[C@@H](CC(=O)O)C(=O)N[C@@H](CC(=O)O)C(=O)N[C@@H](CCCNC(=N)N)C(=O)N[C@@H](CCCNC(=N)N)C(=O)N[C@@H](CCCNC(=N)N)C(=O)N[C@@H](CCCNC(=N)N)C(=O)N[C@@H](CCCNC(=N)N)C(=O)N[C@@H](CCCNC(=N)N)C(=O)N[C@@H](CCCNC(=N)N)C(=O)N[C@@H](CCCNC(=N)N)C(N)=O)[C@@H](C)O` [Peptide 17-R8] (Ac-EDDDWIDWGPTSDDDRRRRRRRR-NH2) are 123 ± 4 nM and 123 ± 4 nM.
On to `CC[C@H](C)[C@H](NC(=O)[C@H](Cc1c[nH]c2ccccc12)NC(=O)[C@H](CC(=O)O)NC(=O)[C@H](CC(=O)O)NC(=O)[C@H](CC(=O)O)NC(=O)[C@H](CCC(=O)O)NC(C)=O)C(=O)N[C@@H](CC(=O)O)C(=O)N[C@@H](Cc1c[nH]c2ccccc12)C(=O)NCC(=O)N1CCC[C@H]1C(=O)N[C@H](C(=O)N[C@@H](CO)C(=O)N[C@@H](CC(=O)O)C(=O)N[C@@H](CC(=O)O)C(=O)N[C@@H](CC(=O)O)C(=O)N[C@@H](CCC(=O)O)C(=O)N[C@@H](C)C(=O)N[C@@H](C)C(=O)N[C@@H](C)C(=O)N[C@@H](CCCCN)C(=O)N[C@@H](CCCNC(=N)N)C(=O)N[C@@H](CCCNC(=N)N)C(=O)N[C@@H](CCCNC(=N)N)C(=O)N[C@@H](CCCNC(=N)N)C(=O)N[C@@H](CCCNC(=N)N)C(=O)N[C@@H](CCCNC(=N)N)C(=O)N[C@@H](CCCNC(=N)N)C(=O)N[C@@H](CCCNC(=N)N)C(N)=O)[C@@H](C)O` [Peptide 17-RL-R8] (Ac-EDDDWIDWGPTSDDDEAAAKRRRRRRRR-NH2), for which the Ki runs as follows: under setting [2], 139 ± 2 nM; under setting [3], 139 ± 2 nM.
Turning to `CC[C@H](C)[C@H](NC(=O)[C@H](Cc1c[nH]c2ccccc12)NC(=O)[C@H](CC(=O)O)NC(=O)[C@H](CC(=O)O)NC(=O)[C@H](CC(=O)O)NC(=O)[C@H](CCC(=O)O)NC(C)=O)C(=O)N[C@@H](CC(=O)O)C(=O)N[C@@H](Cc1c[nH]c2ccccc12)C(=O)NCC(=O)N1CCC[C@H]1C(=O)N[C@H](C(=O)N[C@@H](CO)C(=O)N[C@@H](CC(=O)O)C(=O)N[C@@H](CC(=O)O)C(=O)N[C@@H](CC(=O)O)C(=O)N[C@@H](Cc1ccc(O)cc1)C(=O)NCC(=O)N[C@@H](CCCNC(=N)N)C(=O)N[C@@H](CCCCN)C(=O)N[C@@H](CCCCN)C(=O)N[C@@H](CCCNC(=N)N)C(=O)N[C@@H](CCCNC(=N)N)C(=O)N[C@@H](CCC(N)=O)C(=O)N[C@@H](CCCNC(=N)N)C(=O)N[C@@H](CCCNC(=N)N)C(=O)N[C@@H](CCCNC(=N)N)C(N)=O)[C@@H](C)O` [Peptide 17-Tat] (Ac-EDDDWIDWGPTSDDDYGRKKRRQRRR-NH2), the Ki under setting [2] was 79 ± 1 nM and the inhibition constant Ki under setting [3] is 78.5 ± 1 nM.
Take `CC[C@H](C)[C@H](NC(=O)[C@H](Cc1ccc(O)cc1)NC(=O)[C@H](CC(=O)O)NC(=O)[C@H](CC(=O)O)NC(=O)[C@H](CCC(=O)O)NC(C)=O)C(=O)N[C@@H](CC(=O)O)C(=O)N[C@@H](Cc1c[nH]c2ccccc12)C(=O)N[C@@H](Cc1ccc(O)cc1)C(=O)N[C@@H](CC(=O)O)C(=O)N[C@@H](CO)C(=O)N[C@@H](CC(=O)O)C(=O)N[C@@H](CC(=O)O)C(=O)N[C@@H](CC(=O)O)C(N)=O` [Peptide 18] (Ac-EDDYIDWYDSDDD-NH2): the inhibitory constant (Ki) was 4.6 ± 0.3 nM under setting [4] and 4.6 ± 0.3 nM under setting [5].
On to `CC[C@H](C)[C@H](NC(=O)[C@H](Cc1ccc(O)cc1)NC(=O)[C@H](CC(=O)O)NC(=O)[C@H](CC(=O)O)NC(=O)[C@H](CCC(=O)O)NC(C)=O)C(=O)N[C@@H](CC(=O)O)C(=O)N[C@@H](Cc1c[nH]c2ccccc12)C(=O)NCC(=O)N1CCC[C@H]1C(=O)N[C@H](C(=O)N[C@@H](CO)C(=O)N[C@@H](CC(=O)O)C(=O)N[C@@H](CC(=O)O)C(=O)N[C@@H](CC(=O)O)C(N)=O)[C@@H](C)O` [Peptide 19] (Ac-EDDYIDWGPTSDDD-NH2), for which the Ki reads like this: under setting [4], 3.8 ± 0.2 nM; under setting [5], 3.8 ± 0.2 nM.
With `CC[C@H](C)[C@H](NC(=O)[C@H](Cc1ccccc1)NC(=O)[C@H](CCC(=O)O)NC(=O)[C@@H](NC(=O)[C@H](CCC(=O)O)NC(C)=O)[C@@H](C)O)C(=O)N[C@@H](CC(=O)O)C(=O)N[C@@H](Cc1c[nH]c2ccccc12)C(=O)NCC(=O)N1CCC[C@H]1C(=O)N[C@H](C(=O)NCC(=O)N[C@@H](CC(=O)O)C(=O)N[C@@H](CCC(=O)O)C(=O)N[C@@H](CC(=O)O)C(N)=O)[C@@H](C)O` [Peptide 26, Ac-ETEFIDWGPTGDED-NH2] (Ac-ETEFIDWGPTGDED-NH2), the Ki is, setting by setting: (Table 11, deep mutational scanning validation variants of AJAP-1WT, read-out: Ki (nM) mean ± SEM) 9 ± 1 nM; under setting [1], 9 nM; (unit inferred, read-out: Ki) 9 nM. Besides, for the setting “relative to AJAP-1WT”, the “fold improved affinity relative to the wild type” value was 3 fold.

Values taken from patent US20260193293A1, “PEPTIDES CAPABLE OF INHIBITING PROTEIN-PROTEIN INTERACTIONS AT GABAB1A SUBUNIT AND USES THEREOF” (UNIVERSITY OF COPENHAGEN, priority 2022, published 2026).
